Measured values taken from patent US20240043403A1, “HETEROARYL CARBOXAMIDE COMPOUND” (Astellas Pharma Inc., priority 2020, published 2024).

Target: human recombinant DGK ξ (Homo sapiens (Human), UniProt Q13574)
Assay: Evaluation of DGK ξ inhibitory effect (ADP-Glo Kinase Assay)
Format: biochemical
Settings: ADP-Glo luminescence
Description: Test Example 1. Evaluation of DGK ξ Inhibitory Effect
The inhibitory effect of a test compound on human recombinant DGK ξ (Cama Biosciences, Inc., 12-410-20N) was examined by the following method in which detection is performed with ADP-Glo™ Kinase Assay (Promega Corporation).
To a 384-well plate (Greiner Bio-One Co., Ltd.), 3 μL of a DGK ξ enzyme dissolved in an assay buffer (40 mM Tris-HCl pH 7.5, 10 mM MgCl2, 1 mM dithiothreitol (DTT) and 0.1 mg/mL bovine serum albumin (BSA)) (90 ng/mL) was added, and 3 μL of the test compound diluted with the same assay buffer was added so that an intended final concentration was obtained. The mixture was left standing at room temperature for 15 minutes, 3 μL of a substrate (150 μM 1-oleoyl-2-acetyl-sn-glycerol (Sigma-Aldrich Co. LLC), 480 μM phosphatidylserine (Avanti, Inc.) and 150 μM UltraPure-ATP (attached to ADP-Glo)) was then added, and the mixture was left standing at room temperature for 30 minutes to react. Thereafter, 3 μL of an ADP-Glo Reagent was added, and the mixture was left standing at room temperature for 40 minutes to stop the enzyme reaction. Further, 6 μL of a Kinase-Detection Reagent was added, the mixture was left standing at room temperature for 30 minutes, and the luminescence was then measured using ARVO X3 (PerkinElmer, Inc.). The half maximal inhibitory concentration (IC50) was calculated by Sigmoid-Emax model non-linear regression analysis, where the signal value in solvent treatment was set to 0% inhibition and the signal value without addition of the DGK ξ enzyme was set to 100% inhibition. […] In the table. Ex represents the number of each Example described below.

Sequence of human recombinant DGK ξ (Q13574 whole entry): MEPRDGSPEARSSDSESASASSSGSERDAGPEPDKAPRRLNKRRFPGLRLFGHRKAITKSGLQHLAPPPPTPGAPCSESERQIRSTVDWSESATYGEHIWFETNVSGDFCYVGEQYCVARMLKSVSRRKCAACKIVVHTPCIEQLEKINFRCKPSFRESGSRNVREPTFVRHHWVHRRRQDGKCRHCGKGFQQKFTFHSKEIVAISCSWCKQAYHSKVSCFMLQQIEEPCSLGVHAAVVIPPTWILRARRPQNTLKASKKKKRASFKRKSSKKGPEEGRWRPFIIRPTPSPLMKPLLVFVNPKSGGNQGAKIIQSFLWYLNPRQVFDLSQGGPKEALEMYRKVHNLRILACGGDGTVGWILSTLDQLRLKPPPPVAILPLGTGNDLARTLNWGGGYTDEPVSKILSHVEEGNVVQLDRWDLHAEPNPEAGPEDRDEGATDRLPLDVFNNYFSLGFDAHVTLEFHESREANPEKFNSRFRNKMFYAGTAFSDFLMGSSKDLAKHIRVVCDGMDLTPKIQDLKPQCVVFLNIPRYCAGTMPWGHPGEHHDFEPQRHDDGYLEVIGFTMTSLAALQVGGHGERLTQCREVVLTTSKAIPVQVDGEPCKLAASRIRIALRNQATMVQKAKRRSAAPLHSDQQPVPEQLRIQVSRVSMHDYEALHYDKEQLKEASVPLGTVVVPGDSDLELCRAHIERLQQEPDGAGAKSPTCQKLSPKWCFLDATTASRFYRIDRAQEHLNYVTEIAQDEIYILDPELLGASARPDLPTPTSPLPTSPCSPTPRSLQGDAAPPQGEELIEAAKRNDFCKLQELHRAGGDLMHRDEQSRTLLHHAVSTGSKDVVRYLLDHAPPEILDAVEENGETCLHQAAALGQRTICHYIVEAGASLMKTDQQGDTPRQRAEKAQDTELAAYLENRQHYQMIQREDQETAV

Row | IC50 [µM] | Compound
1 | 0.0031 | NC[C@@H]1CCCN(c2c(NC(=O)c3ccn(-c4ccnnc4)n3)ccc(Oc3ccccc3F)c2C(F)(F)F)C1 [Example 34]
2 | 0.055 | O=C(Nc1ccc(Oc2ccccc2F)c(C(F)(F)F)c1N1CCC[C@@H](CNC2CC2)C1)c1ccn(-c2ccnnc2)n1 [Example 36]
3 | 0.023 | Cc1cc(C(=O)Nc2ccc(Oc3ccccc3F)c(C(F)(F)F)c2N2CCC[C@@H](CN)C2)nn1-c1ccnnc1 [Example 37]
4 | 0.0041 | CN1CCN(c2c(NC(=O)c3ccn(-c4ccnnc4)n3)ccc(Oc3ccccc3F)c2C(F)(F)F)C[C@@H]1CN [Example 38]
5 | 0.039 | Cc1cn(-c2ccnnc2)nc1C(=O)Nc1ccc(Oc2ccccc2F)c(C(F)(F)F)c1N1CCC[C@@H](CN)C1 [Example 39]
6 | 0.03 | NC[C@@H]1CCCN(c2c(NC(=O)c3ccn(-c4ccnnc4)n3)ccc(-c3ccccc3F)c2C(F)(F)F)C1 [Example 43]
7 | 0.0086 | CNC[C@H]1CN(c2c(NC(=O)c3ccn(-c4ccnnc4)n3)ccc(OC3CCCC3)c2C(F)(F)F)CCN1C [Example 44]
8 | 0.0031 | CN1CCN(c2c(NC(=O)c3ccn(-c4ccnnc4)n3)ccc(Oc3ccccc3Cl)c2C(F)(F)F)C[C@@H]1CN [Example 46]
9 | 0.017 | CN1CCN(c2c(NC(=O)c3ccn(-c4ccnnc4)n3)ccc(OC3CCC3)c2C(F)(F)F)C[C@@H]1CN [Example 51]
10 | 0.046 | CN1CCN(c2c(NC(=O)c3ccn(-c4ccnnc4)n3)ccc(Oc3ccc(F)cc3)c2C(F)(F)F)C[C@@H]1CN [Example 52]
11 | 0.012 | CN1CCN(c2c(NC(=O)c3ccn(-c4ccnnc4)n3)ccc(Oc3ccccc3F)c2C(F)(F)F)C[C@H]1CN [Example 54]
12 | 0.012 | CN1CCN(c2c(NC(=O)c3coc(-c4ccnnc4)n3)ccc(Oc3ccccc3F)c2C(F)(F)F)C[C@H]1CN [Example 55]
13 | 0.021 | NCC1(F)CCCN(c2c(NC(=O)c3ccn(-c4ccnnc4)n3)ccc(Oc3ccccc3F)c2C(F)(F)F)C1 (stereo not drawn) [Example 58]
14 | 0.011 | CNC[C@H]1CN(c2c(NC(=O)c3ccn(-c4ccnnc4)n3)ccc(-c3ccccc3F)c2C(F)(F)F)CCN1C [Example 59]
15 | 0.046 | NC[C@@H]1CCCN(c2c(NC(=O)c3ccn(-c4ccnnc4)n3)ccc(Oc3ccccn3)c2C(F)(F)F)C1 [Example 61]
16 | 0.0069 | Cc1ccccc1Oc1ccc(NC(=O)c2ccn(-c3ccnnc3)n2)c(N2CCC[C@@H](CN)C2)c1C(F)(F)F [Example 62]
17 | 0.013 | COCCNC[C@@H]1CCCN(c2c(NC(=O)c3ccn(-c4ccnnc4)n3)ccc(Oc3ccccc3F)c2C(F)(F)F)C1 [Example 64]

Row | IC50 [µM] | Compound
18 | 0.0076 | CN[C@@H]1CCN2CCN(c3c(NC(=O)c4coc(-c5ccnnc5)n4)ccc(Oc4ccccc4)c3C(F)(F)F)C[C@@H]12 [Example 76]
19 | 0.0056 | N[C@@H]1CCN2CCN(c3c(NC(=O)c4ccn(-c5ccnnc5)n4)ccc(Oc4ccccc4F)c3C(F)(F)F)C[C@@H]12 [Example 77]
20 | 0.0013 | CN[C@@H]1CCN2CCN(c3c(NC(=O)c4ccn(-c5ccnnc5)n4)ccc(Oc4ccccc4F)c3C(F)(F)F)C[C@@H]12 [Example 78]
21 | 0.031 | N[C@@H]1CCN2CCN(c3c(NC(=O)c4ccn(-c5ccnnc5)n4)ccc(OC4CC4)c3C(F)(F)F)C[C@@H]12 [Example 82]
22 | 0.0035 | CN[C@@H]1CCN2CCN(c3c(NC(=O)c4coc(-c5ccnnc5)n4)ccc(Oc4ccccc4F)c3C(F)(F)F)C[C@@H]12 [Example 83]
23 | 0.0021 | N[C@H]1CCN2CCN(c3c(NC(=O)c4ccn(-c5ccnnc5)n4)ccc(Oc4ccccc4F)c3C(F)(F)F)C[C@H]12 [Example 84]
24 | 0.0052 | CN[C@H]1CCN2CCN(c3c(NC(=O)c4ccn(-c5ccnnc5)n4)ccc(Oc4ccccc4F)c3C(F)(F)F)C[C@H]12 [Example 85]
25 | 0.0041 | CNC[C@H]1CN(c2c(NC(=O)c3ccn(-c4ccnnc4)n3)ccc(Oc3ccccc3Cl)c2C(F)(F)F)CCN1C [Example 87]
26 | 0.11 | CNC[C@H]1CN(c2c(NC(=O)c3ccn(-c4ccnnc4)n3)ccc(OC3CC3)c2C(F)(F)F)CCN1C [Example 88]
27 | 0.027 | CN1CCN(c2c(NC(=O)c3ccn(-c4ccnnc4)n3)ccc(Oc3ccccc3F)c2C(F)(F)F)C[C@@H]1CNC1CC1 [Example 89]
28 | 0.025 | Cc1cc(C(=O)Nc2ccc(Oc3ccccc3Cl)c(C(F)(F)F)c2N2CCC[C@@H](CN)C2)nn1-c1ccnnc1 [Example 91]
29 | 0.092 | CNC[C@H]1CN(c2c(NC(=O)c3cc(C)n(-c4ccnnc4)n3)ccc(Oc3ccccc3F)c2C(F)(F)F)CCN1C [Example 92]
30 | 0.0014 | CNC[C@H]1CN(c2c(NC(=O)c3ccn(-c4ccnnc4)n3)ccc(Oc3ccccc3Cl)c2Cl)CCN1C [Example 94]
31 | 0.0038 | CNC[C@@H]1CN(c2c(NC(=O)c3ccn(-c4ccnnc4)n3)ccc(Oc3ccccc3Cl)c2C(F)(F)F)CCN1C [Example 95]
32 | 0.03 | CNC[C@H]1CN(c2c(NC(=O)c3ccn(-c4ccnnc4)n3)ccc(Oc3ccc(F)cc3F)c2C(F)(F)F)CCN1C [Example 96]
33 | 0.012 | CNC[C@H]1CN(c2c(NC(=O)c3cnn(-c4ccnnc4)n3)ccc(Oc3ccccc3Cl)c2C(F)(F)F)CCN1C [Example 97]
34 | 0.033 | CNC[C@H]1CN(c2c(NC(=O)c3ccn(-c4ccnnc4)n3)ccc(OC3CCC3)c2C(F)(F)F)CCN1C [Example 99]

Further lines, the compound ahead of its results:

Row | Compound | IC50 [µM]
35 | Cc1cc(C(=O)Nc2ccc(Oc3ccccc3)c(C(F)(F)F)c2N2CCC[C@@H](CN)C2)nn1-c1ccnnc1 [Example 35] | 0.045
36 | CN1CCN(c2c(NC(=O)c3ccn(-c4ccnnc4)n3)ccc(OC3CCCC3)c2C(F)(F)F)C[C@@H]1CN [Example 40] | 0.0052
37 | CN1CCN(c2c(NC(=O)c3coc(-c4ccnnc4)n3)ccc(OC3CCCC3)c2C(F)(F)F)C[C@@H]1CN [Example 41] | 0.005
38 | NC[C@@H]1CCCN(c2c(NC(=O)c3coc(-c4ccnnc4)n3)ccc(-c3ccccc3F)c2C(F)(F)F)C1 [Example 42] | 0.15
39 | CNC[C@H]1CN(c2c(NC(=O)c3coc(-c4ccnnc4)n3)ccc(C3CCCC3)c2C(F)(F)F)CCN1C [Example 49] | 0.0078
40 | CNC[C@H]1CN(c2c(NC(=O)c3ccn(-c4ccnnc4)n3)ccc(C3=CCOCC3)c2C(F)(F)F)CCN1C [Example 50] | 0.055
41 | CN1CCN(c2c(NC(=O)c3coc(-c4ccnnc4)n3)ccc(Oc3ccc(F)cc3)c2C(F)(F)F)C[C@@H]1CN [Example 53] | 0.029
42 | CN1CCN(c2c(NC(=O)c3ccn(-c4ccnnc4)n3)ccc(Oc3ccccc3Cl)c2Cl)C[C@@H]1CN [Example 56] | 0.00089
43 | CN1CCN(c2c(NC(=O)c3coc(-c4ccnnc4)n3)ccc(Oc3ccccc3Cl)c2Cl)C[C@@H]1CN [Example 57] | 0.00042
44 | CNC[C@H]1CN(c2c(NC(=O)c3coc(-c4ccnnc4)n3)ccc(-c3ccccc3F)c2C(F)(F)F)CCN1C [Example 60] | 0.027
45 | NC[C@@H]1CCCN(c2c(NC(=O)c3ccn(-c4ccnnc4)n3)ccc(OC3CC3)c2-c2ccccc2)C1 [Example 63] | 0.07
46 | NCCOc1cccc(-c2c(NC(=O)c3coc(-c4ccnnc4)n3)ccc(OC3CC3)c2C(F)(F)F)c1 [Example 65] | 0.022
47 | CNCCOc1cccc(-c2c(NC(=O)c3coc(-c4ccnnc4)n3)ccc(OC3CC3)c2C(F)(F)F)c1 [Example 66] | 0.18
48 | NCCOc1cc(-c2c(NC(=O)c3coc(-c4ccnnc4)n3)ccc(OC3CCC3)c2C(F)(F)F)ccn1 [Example 67] | 0.035
49 | NCCOc1cc(-c2c(NC(=O)c3coc(-c4ccnnc4)n3)ccc(OC3CC3)c2C(F)(F)F)ccn1 [Example 68] | 0.024
50 | CNCCOc1cc(-c2c(NC(=O)c3coc(-c4ccnnc4)n3)ccc(OC3CCC3)c2C(F)(F)F)ccn1 [Example 69] | 0.06
51 | CNCCOc1cc(-c2c(NC(=O)c3coc(-c4ccnnc4)n3)ccc(OC3CC3)c2C(F)(F)F)ccn1 [Example 70] | 0.055
52 | O=C(Nc1ccc(OC2CCC2)c(C(F)(F)F)c1-c1cnn(C2CCNCC2)c1)c1coc(-c2ccnnc2)n1 [Example 71] | 0.021
53 | O=C(Nc1ccc(OC2CC2)c(C(F)(F)F)c1-c1cnn(C2CCNCC2)c1)c1ccn(-c2ccnnc2)n1 [Example 72] | 0.062
54 | NCCCn1cc(-c2c(NC(=O)c3coc(-c4ccnnc4)n3)ccc(OC3CCC3)c2C(F)(F)F)cn1 [Example 73] | 0.043
55 | NCCCn1cc(-c2c(NC(=O)c3ccn(-c4ccnnc4)n3)ccc(OC3CCC3)c2C(F)(F)F)cn1 [Example 74] | 0.016
56 | N[C@@H]1CCN2CCN(c3c(NC(=O)c4coc(-c5ccnnc5)n4)ccc(OC4CCC4)c3C(F)(F)F)C[C@@H]12 [Example 75] | 0.069
57 | NCCOc1cc(-c2c(NC(=O)c3ccn(-c4ccnnc4)n3)ccc(OC3CCC3)c2C(F)(F)F)ccn1 [Example 79] | 0.0078
58 | N[C@@H]1CCN2CCN(c3c(NC(=O)c4coc(-c5ccnnc5)n4)ccc(OC4CC4)c3C(F)(F)F)C[C@@H]12 [Example 81] | 0.11
59 | CNC[C@H]1CN(c2c(NC(=O)c3coc(-c4ccnnc4)n3)ccc(Oc3ccccc3Cl)c2Cl)CCN1C [Example 93] | 0.0028
60 | CNC[C@H]1CN(c2c(NC(=O)c3coc(-c4ccnnc4)n3)ccc(Oc3ccccc3F)c2Cl)CCN1C [Example 98] | 0.0075
